Measured values published in article PMC10147923, “Pain-causing stinging nettle toxins target TMEM233 to modulate NaV1.7 function” (Nature Communications, 2023).
Values joined by “and” are separate entries in the source; they are usually repeats but may differ in a detail not shown here. Equal values may be shown once. Positions of bridges follow the written chain, without caps; N, C: chain ends. Residues, ends and D or L forms follow the SMILES beside them.

Legend:
[1] = system: total NaV current in Tmem233Cre/Cre DRG neurons; assay: Persistent NaV current, Tmem233Cre/Cre DRG neurons; assay type: cell-based, mouse
hNaV1.8 = assay: Persistent current, CHO-hNaV1.8/β3; assay type: cell-based, human; conditions: ExTxA 1 µM
[2] = system: DRG neurons from Tmem233Cre/Cre knockout mice; assay: Calcium imaging, Tmem233Cre/Cre DRG neurons; assay type: cell-based, mouse
Description: DRG from all spinal levels were isolated from male and female mice (wild-type C57BL/6 J, Tmem233^Cre/Cre, NaV1.8^Cre/Cre, NaV1.9^−/− or littermate controls) as previously described[36],[38],[39]. For Ca^2+ imaging experiments, DRG neurons were dissociated following incubation with 1% collagenase type IV (Worthington, New Jersey, USA) for 1.5 h (37 °C, 5% CO2) and 2.5% trypsin (Sigma-Aldrich, Montana, USA) for 15 min and resuspended in Dulbecco’s modified Eagle’s medium (DMEM) (Sigma-Aldrich, New South Wales, Australia) supplemented with 10% fetal bovine serum (FBS) (Thermofisher, Massachusetts, USA) and penicillin/streptomycin (Thermofisher, Massachusetts, USA). Following plating in 96-well poly-D-lysine–coated culture plates, isolated neurons were incubated for 24 h at 37 °C with 5% CO2 prior to imaging.
Dissociated DRG neurons from Tmem233^Cre/Cre and C57BL/6 mice were plated on PDL-coated 96-well black-walled imaging plates and loaded with Fluo-4 AM calcium indicator (5 μM) (Invitrogen, Massachusetts, USA) for 1 h in culture medium. Cells were washed with Hanks’ balanced salt solution containing 20 mM HEPES and then transferred to the recording chamber of a Nikon Ti-E Deconvolution inverted microscope equipped with a Lumencor Spectra LED light source. Fluorescence images (excitation, 485 nm; emission, 521 nm) were acquired at 1 frame per second using a ×20 objective. Following the recording of baseline fluorescence (20 s), cells were consecutively exposed to buffer control (0.1% BSA, t = 30 s), ExTxA (10 nM, t = 60 s), and 30 mM KCl (30 mM, t = 210 s). […] Cells responding to buffer control were excluded from analysis.

[3] = system: total NaV current in wild-type DRG neurons; assay: Persistent NaV current, wild-type littermate DRG neurons; assay type: cell-based, mouse; conditions: ExTxA 30 nM; wildtype; mean ± SEM, n = 6
hNaV1.3 = assay: Persistent current, HEK293-hNaV1.3/β1; assay type: cell-based, human; conditions: ExTxA 1 µM
hNaV1.2 = assay: Persistent current, HEK293-hNaV1.2/β1; assay type: cell-based, human; conditions: ExTxA 1 µM; individual cells
[4] = system: NaV currents in SH-SY5Y cells; assay: Persistent current, SH-SY5Y cells; assay type: cell-based, human; conditions: ExTxA 1 µM
hNaV1.7 = assay: Persistent current, Xenopus oocytes expressing hNaV1.7 (two-electrode voltage clamp); assay type: cell-based, human; conditions: ExTxA 1 µM
Description: (§1) Human NaV1.7 and TMEM233 genes cloned into pcDNA3.1 plasmid were linearized with NotI restriction enzyme and used as template for cRNA synthesis using T7 polymerase (mMessage mMachine Kit; Life Technologies). Stage V/VI oocytes were injected with 5–20 ng total RNA, then incubated at 17 °C for 1–3 days in 50% Leibovitz’s L-15 medium (Gibco), supplemented with 25 µg/mL gentamicin, 25 µg/mL streptomycin, and 2.5% fetal horse serum. Two-electrode voltage clamp (Axoclamp 900 A amplifier; Axon Instruments) were performed at room temperature in ND96 solution (in mM: 96 NaCl, 2 KCl, 1 MgCl2, 1.8 CaCl2, 5 HEPES; pH 7.4 with NaOH) with a ∼40 μL recording chamber. In experiments where ExTxA was added, solutions were supplemented with 0.05% fatty-acid free bovine serum albumin. Borosilicate glass microelectrodes had resistances of 0.2–0.8 MΩ when backfilled with 3 M KCl. Data were digitized at 20 kHz and filtered at 2 kHz using pCLAMP 11 software (Digidata 1550B; Axon Instruments).
ExTxA activity was assayed at 1 µM, analyzing the current from a 50 ms step to −10 mV every 10 s, from a holding volage of −80 mV. For all other voltage protocols, oocytes were held at −90 mV. Activation curves were obtained by measuring peak currents during steps from −100 mV to +60 mV in +10 mV increments applied every 10 s, with G/Gmax plot between −80 mV and +10 mV. […]

hNaV1.7/TMEM233 = assay: Persistent current, Xenopus oocytes hNaV1.7/TMEM233; assay type: cell-based, human
Description: as §1
ExTxA activity was assayed at 1 µM, analyzing the current from a 50 ms step to −10 mV every 10 s, from a holding volage of −80 mV. For all other voltage protocols, oocytes were held at −90 mV. Activation curves were obtained by measuring peak currents during steps from −100 mV to +60 mV in +10 mV increments applied every 10 s, with G/Gmax plot between −80 mV and +10 mV. Steady-state inactivation curves plot the peak current at a test pulse of −10 mV, after a 200 ms pre-pulse from −100 mV to +40 mV in +10 mV increments applied every 10 s. Slow inactivation curves plot the peak current at a test pulse of −10 mV, after a 10 s pre-pulse from −110 mV to −10 mV in +10 mV increments applied every 20 s. To determine recovery from inactivation, oocytes were first stepped to −10 mV, then rested at −90 mV for a variable time interval indicated in the graph, then a second −10 mV depolarization applied to determine the fraction of channls recovered. This protocol was applied every 13 s (time between each initial −10 mV step).

[5] = system: Tmem233Cre/Cre knockout mice; assay: Nocifensive behaviors after intraplantar injection, Tmem233Cre/Cre mice; assay type: in vivo, mouse
Description: Nocifensive responses to intraplantar administration of ExTxA (5–10 nM) were assessed as previously described. In brief, ExTxA was diluted in sterile saline/0.1% BSA and administered by an intraplantar injection (40 μL) into a single hind paw of Tmem233^Cre/Cre, NaV1.7^Advill and wild-type littermate controls. Pain behaviors, consisting of paw licks or flinches, were counted from video recordings by a blinded investigator for up to 60 min following injection.

[6] = system: total and TTX-s NaV current in wild-type DRG neurons; assay: Persistent total NaV current, manual patch clamp, mouse DRG neurons; assay type: cell-based

**Q.** What does the source list for `CC[C@H](C)[C@@H]1NC(=O)[C@H](CCCNC(=N)N)NC(=O)[C@H](Cc2ccccc2)NC(=O)[C@H](CC(C)C)NC(=O)[C@H](CO)NC(=O)[C@@H]2CSSC[C@@H]3NC(=O)[C@H]([C@@H](C)O)NC(=O)[C@H](CSSC[C@H](NC(=O)[C@H](CCCNC(=N)N)NC(=O)[C@@H]4CCCN4C(=O)[C@@H](N)CC(C)C)C(=O)N[C@@H](CC(=O)O)C(=O)N[C@@H](CO)C(=O)N4CCC[C@H]4C(=O)N[C@@H](Cc4ccccc4)C(=O)N2)NC(=O)[C@H](CCCCN)NC(=O)[C@H](CC(=O)O)NC(=O)CNC(=O)[C@H](CSSC[C@@H](C(=O)N[C@H](C(=O)N2CCC[C@H]2C(=O)N[C@@H](CC(=O)O)C(=O)N[C@H](C(=O)O)C(C)C)C(C)C)NC(=O)[C@H](CC(C)C)NC(=O)CNC(=O)[C@H](Cc2ccccc2)NC(=O)[C@H]([C@@H](C)CC)NC(=O)[C@@H]2CCCN2C(=O)[C@H](CC(C)C)NC(=O)[C@@H]2CCCN2C(=O)[C@H](C(C)C)NC3=O)NC(=O)[C@H](CC(C)C)NC(=O)CNC1=O` [ExTxA, excelsatoxin A] (H-LPRCDSPFCSLFRIGLCGDKCTCVPLPIFGLCVPDV-OH; disulfide 4-21, 9-23, 17-32)?
**A.** toxicity to TE-671 cells, ExTxA alone (TE-671 cells; ExTxA 1 µM): did not cause visible toxicity; toxicity to TE-671 cells, with veratridine and ouabain (TE-671 cells; ExTxA 1 µM + veratridine 5 µM + ouabain 20 nM): cell death; persistent current, Mean diff, A2 - B2 [1]: 0.4591; ExTxA-induced persistent current (I40ms/Ipeak; nA) in DRG neurons ([1]; ExTxA 30 nM, Tmem233Cre KO, mean ± SEM, n = 7): 0.114 ± 0.04; persistent current (I40 ms/Ipeak) (hNaV1.8; individual cells): 0.04156 and 0.003935 and 0.01946 and 0.03094 and 0.03913 and 0.02554; Δ persistent current (I40 ms/Ipeak; buffer cf. ExTxA) (hNaV1.8; mean): 0.027 ± 0.0057 and 0.02676; ExTxA-induced DRG Ca2+ responses ([2]; ExTxA 10 nM, Tmem233Cre KO, Fluo-4, >1.5-fold increase, mean ± SEM, n = 7 wells): 22.33 ± 1.942 % neurons activated; calcium imaging response (Fig. 3f) ([2]; KO, individual values, one line each (n = 7)): 24.6269 and 21.831 and 19.2118 and 28.0374 and 12.6582 and 26.1905; calcium imaging response (Fig. 3f), Mean ([2]; KO, mean, number of values 7, Std. Deviation 5.137, SEM 1.942): 22.33; calcium imaging response (Fig. 3f), Median ([2]; KO, median, number of values 7): 23.77; ExTxA-induced persistent current (I40ms/Ipeak; nA) in DRG neurons [3]: 0.573 ± 0.086; persistent current (I40 ms/Ipeak) (hNaV1.3; individual cells): 0.0261 and 0.07967 and 0.01209 and 0.007119 and 0.06666 and 0.04746 and 0.006524 and 0.006085 and 0.07156 and 0.01737 and 0.02558 and -0.00907 and 0.002307 and 0.02027 (2×) and 0.01594 and 0.04935 and 0.06033 and 0.03164 and 0.000895 and 0.0334 and 0.008347 and 0.02877; Δ persistent current (I40 ms/Ipeak; buffer cf. ExTxA) (hNaV1.3; mean): 0.0265 ± 0.0049 and 0.02645; persistent current (I40 ms/Ipeak) (hNaV1.2): -0.01884 and -0.01572 and 0.004985 and 0.03852 and -0.01184 and -0.02181 and 0.005193 and -0.01291 and 0.01563 and -0.00224 and -0.00414; persistent current (I40 ms/Ipeak) ([4]; individual cells): -0.02037 and -0.04756 and 0.0447 and 0.01578 and 0.03746; Δ persistent current (I40 ms/Ipeak; buffer cf. ExTxA) ([4]; mean): 0.006 ± 0.0175 and 0.006003; Xenopus oocyte persistent current (I40 ms/Ipeak) (hNaV1.7; hNaV1.7 alone, mean ± SEM, n = 6): 0.081 ± 0.012; persistent current (I40 ms/Ipeak) (hNaV1.7; individual oocytes): 0.01056 and 0.002122 and 0.005805 and 0.01324 and 0.01132 and 0.02838 and 0.05496 and 0.01837 and -0.00648 and -0.01247 and 0.02865; Xenopus oocyte persistent current (I40 ms/Ipeak) (hNaV1.7/TMEM233): 0.727 ± 0.020; Nav:TMEM, 1:1 molar, mean (persistent current) (hNaV1.7/TMEM233; Supplementary Fig 1f, 1 uM, toxin not named, mean of n = 6, Control mean 0.0806, n = 6): 0.727; Nav:TMEM, 1:1 molar, individual values (persistent current) (hNaV1.7/TMEM233; Supplementary Fig 1f, 1 uM, toxin not named, single replicates): 0.6869 and 0.7919 and 0.702 and 0.7846 and 0.7038 and 0.6927; Nav:TMEM, 1:1 molar, difference between means (1 uM - Control) ± SEM (hNaV1.7/TMEM233; Supplementary Fig 1f, unpaired t test P <0.0001, 95% CI 0.5949 to 0.6979): 0.6464 ± 0.0231; nocifensive behaviors, 0-40 min combined (Fig. 3g) ([5]; TMEMCre KO, 0-40 min, individual animals, one line each (n = 16)): 8 and 6 and 329 and 151 and 352 and 36 and 124 and 41 and 45 and 71 and 136 and 66 and 142 and 96; nocifensive behaviors, 0-40 min combined, mean (Fig. 3g) ([5]; TMEMCre KO, 0-40 min, mean, n = 16): 115.9; ExTxA-induced pain behaviours (cumulative paw licks and flinches over 40 min) ([5]; i.pl. ExTxA 10 nM, Tmem233Cre KO, mean ± SEM, n = 16): 115.9 ± 25.3; ExTxA-induced nocifensive behaviors in Tmem233Cre/Cre KO mice ([5]; mouse, in vivo): significantly reduced; nocifensive behaviors, 0-40 min combined, difference between means (B - A) ± SEM (Fig. 3g) ([5]; mouse, in vivo): -118.4 ± 37.67; DRG total persistent NaV current (I40 ms/Ipeak) ([6]; ExTxA 100 nM in 0.1% BSA, depolarization to -20 mV from -90 mV, mean, n = 6): 0.513 ± 0.10 and 0.5133; Mean Diff. of persistent current, Control vs. ExTxA ([6]; ExTxA 100 nM, Tukey's multiple comparisons): -0.4859; DRG total persistent NaV current (I40 ms/Ipeak) ([6]; ExTxA 100 nM, individual cells, one line per cell): 0.842 and 0.3774 and 0.8283 and 0.3793 and 0.3284 and 0.3245
